“Also recorded” adds a separate entry of the source. Like-named read-outs stand apart in the source and are kept apart here.

One series has as its system endogenous TFEB. The series is described as follows: TFEB nuclear translocation, immunocytochemistry high-content imaging. The series is classed as cell-based.
Another series concerns endogenous TFE3. The series is described as follows: TFE3 nuclear translocation, immunocytochemistry high-content imaging. It is filed as cell-based.
Series [1] deals with SH-SY5Y cells.
From the text: The PKIS2 Library was supplied by The Structural Genomics Consortium at the University of North Carolina at Chapel Hill.
For series [2], the system named is SH-SY5Y cells. The settings on record: human.
The subject of series [3] is SH-SY5Y cells. The series is described as follows: AK (adenylate kinase) release ToxiLight cytotoxicity assay. The settings on record: for AK: PKIS2 primary screening.
Method: Total cell lysis with 5 µL 5% Triton-X 100 (Sigma-Aldrich, T8787) is used as a positive control for the assay and toxicity is expressed as a percentage of luminescence under DMSO conditions.
Series [4] has as its system SH-SY5Y cells. Description: Chemotype enrichment analysis of PKIS2 primary screen hit categories. The settings on record: PKIS2 primary screening, hit category.
Series [5] has as its system SH-SY5Y cells. The series is described as follows: Nuclear count from microscopy images (cellular growth and toxicity). The following applies: PKIS2 primary screening.
The mark [6] stands for this setting: PKIS2 primary screening, DQ Red BSA intensity.
The mark [7] stands for this setting: PKIS2 primary screening, DQ Red BSA spot count.

In the series with endogenous TFEB, `CN(C)CC(O)COc1ccc(Nc2nccc(-c3cnn4nc(N5CCOCC5)ccc34)n2)cc1` (stereo not shown) [UNC10225197A] came in with a TFEB % of 3.40%. The TFE3 % in the series on endogenous TFE3 is 12.57%. Also, in the series on SH-SY5Y cells [1], the “DQ Intensity” value is given as 107.33 and the “DQ Spot” value is 110.97. Also, in the series on SH-SY5Y cells [2], the “Nuclear Count” value was 103.35. Also, the AK with SH-SY5Y cells [3] worked out at 142.32.
As to `CC(C)(CN)c1nc(-c2ccc(Cl)c(O)c2)c(-c2ccncc2)[nH]1.O=C(O)C(F)(F)F` [UNC10225206A], the TFEB % in the series with endogenous TFEB (PKIS2 primary screening) amounted to 8.68%. In the series on endogenous TFE3 (PKIS2 primary screening), this compound had a TFE3 % of 7.79%. Further, in the series on SH-SY5Y cells [4], the Outcome entry is on record as “DQ Only”. The “DQ Intensity” value with SH-SY5Y cells [1] (setting [6]) came to 164.60. Besides, the “DQ Spot” value in the series on SH-SY5Y cells [1] (setting [7]) is reported as 127.42. Further, the “Nuclear Count” value in the series with SH-SY5Y cells [2] came out at 76.70. The AK in the series on SH-SY5Y cells [3] was found to be 94.20.
For `CC(C)(CN)c1nc(-c2ccc(Cl)c(O)c2)c(-c2ccncc2)[nH]1.O=C(O)C(F)(F)F` [UNC10225206B], the TFEB % in the series on endogenous TFEB (PKIS2 primary screening) turned out to be 5.00%. The TFE3 % in the series on endogenous TFE3 (PKIS2 primary screening) was found to be 3.59%. The Outcome entry in the series with SH-SY5Y cells [4] was “DQ Only”. Besides, the “DQ Intensity” value with SH-SY5Y cells [1] (setting [6]) is 150.27. The “DQ Spot” value in the series with SH-SY5Y cells [1] (setting [7]) is listed as 119.19. In the series on SH-SY5Y cells [2], the “Nuclear Count” value came to 109.20. In the series with SH-SY5Y cells [3], this compound registered an AK of 116.08.
Turning to `CCCCc1nn2ncccc2c1-c1ccnc(NC2CC2)n1` [UNC10225247A], in the series with endogenous TFEB (PKIS2 primary screening), the TFEB % was 2.59%. In the series with endogenous TFE3 (PKIS2 primary screening), this compound showed a TFE3 % of 6.63%. Besides, in the series on SH-SY5Y cells [1] (PKIS2 primary screening), the “DQ Intensity” value was 77.25 and the “DQ Spot” value came out at 98.14. In addition, the “Nuclear Count” value in the series on SH-SY5Y cells [2] stood at 77.00. Moreover, in the series with SH-SY5Y cells [3], the AK is 99.47.
`CC(C)Oc1ccc2c(-c3ccnc(Nc4ccc(N5CCN(C)CC5)cc4)n3)cnn2n1` [UNC10225414A]: the TFEB % with endogenous TFEB (PKIS2 primary screening) is 3.20%. In the series with endogenous TFE3 (PKIS2 primary screening), this compound had a TFE3 % of 8.69%. In the series with SH-SY5Y cells [1] (PKIS2 primary screening), the “DQ Intensity” value is given as 74.33 and the “DQ Spot” value came out at 86.73. Besides, in the series on SH-SY5Y cells [2], the “Nuclear Count” value turned out to be 127.68. The compound further had an AK with SH-SY5Y cells [3] of 109.44.
With `COc1cccc(-c2cc(-c3c[nH]nc3-c3ccccn3)ccn2)c1` [UNC10225448A], the TFEB % in the series on endogenous TFEB (PKIS2 primary screening) came out at 6.19%. Also, in the series on endogenous TFE3 (PKIS2 primary screening), the TFE3 % is 7.93%. Besides, the Outcome result in the series on SH-SY5Y cells [4] is listed as “LYSO TOXIC”. The “DQ Intensity” value in the series with SH-SY5Y cells [1] (setting [6]) is given as 60.35. The “DQ Spot” value with SH-SY5Y cells [1] (setting [7]) stood at 69.14. The compound further showed an AK in the series on SH-SY5Y cells [3] of 109.46. Moreover, the “Nuclear Count” value in the series on SH-SY5Y cells [5] is recorded as 116.22.
In the series on endogenous TFEB (PKIS2 primary screening), `CCCCc1nn2ncccc2c1-c1ccnc(Nc2ccc(N3CCN(C)CC3)cc2)n1` [UNC10225453A] showed a TFEB % of 12.73%. In the series with endogenous TFE3 (PKIS2 primary screening), this compound had a TFE3 % of 20.14%. For the same compound, in the series on SH-SY5Y cells [1] (PKIS2 primary screening), the “DQ Intensity” value turned out to be 158.78 and the “DQ Spot” value is 101.42. Besides, the “Nuclear Count” value in the series with SH-SY5Y cells [2] is 74.87. The AK in the series with SH-SY5Y cells [3] is listed as 108.81.
Compound `CN(C)S(=O)(=O)c1cc(-c2ccc3nccc(-c4cccc(S(N)(=O)=O)c4)c3c2)cnc1N` [UNC10225457A] came in with a TFEB % in the series with endogenous TFEB (PKIS2 primary screening) of 2.30%. In addition, the TFE3 % in the series with endogenous TFE3 (PKIS2 primary screening) was found to be 3.13%. Moreover, the Outcome result with SH-SY5Y cells [4] is reported as “LYSO TOXIC”. Further, the “DQ Intensity” value with SH-SY5Y cells [1] (setting [6]) turned out to be 100.41. For the same compound, the “DQ Spot” value with SH-SY5Y cells [1] (setting [7]) was determined as 77.18. In the series on SH-SY5Y cells [3], the AK stood at 74.17. The “Nuclear Count” value in the series on SH-SY5Y cells [5] is listed as 78.66.
On to `Cl.Oc1cccc(Nc2ccnc3cc(-c4ccncc4)ccc23)c1` [UNC10225467A], for which the TFEB % in the series with endogenous TFEB (PKIS2 primary screening) turned out to be 5.92%. Further, the TFE3 % in the series with endogenous TFE3 (PKIS2 primary screening) was 10.65%. In addition, the Outcome result with SH-SY5Y cells [4] is “LYSO TOXIC”. For the same compound, the “DQ Intensity” value in the series on SH-SY5Y cells [1] (setting [6]) stood at 34.95. Also, in the series with SH-SY5Y cells [1] (setting [7]), the “DQ Spot” value is recorded as 51.42. Besides, the AK in the series on SH-SY5Y cells [3] is given as 125.78. Further, the “Nuclear Count” value with SH-SY5Y cells [5] worked out at 88.58.
Compound `Cc1ccc(O)cc1Nc1ccnc2ccc(C(C)(C)C)cc12` [UNC10225479A] yielded a TFEB % in the series on endogenous TFEB (PKIS2 primary screening) of 23.46%. Moreover, in the series on endogenous TFE3 (PKIS2 primary screening), the TFE3 % amounted to 19.57%. Further, in the series on SH-SY5Y cells [4], the Outcome entry was “LYSO TOXIC”. For the same compound, the “DQ Intensity” value with SH-SY5Y cells [1] (setting [6]) stood at 91.49. In addition, the “DQ Spot” value with SH-SY5Y cells [1] (setting [7]) came to 60.27. The AK in the series on SH-SY5Y cells [3] is 75.82. In addition, the “Nuclear Count” value in the series on SH-SY5Y cells [5] was determined as 78.69.
As to `COc1cc2nccc(Nc3ccc(Oc4ccccc4)cc3)c2cc1OC.Cl` [UNC10225483A], the TFEB % in the series with endogenous TFEB (PKIS2 primary screening) came out at 23.88%. Also, in the series on endogenous TFE3 (PKIS2 primary screening), the TFE3 % came out at 50.12%. Further, the Outcome entry with SH-SY5Y cells [4] is “LYSO TOXIC”. Besides, the “DQ Intensity” value with SH-SY5Y cells [1] (setting [6]) stood at 58.49. The “DQ Spot” value in the series with SH-SY5Y cells [1] (setting [7]) is 52.29. The compound further yielded an AK in the series with SH-SY5Y cells [3] of 74.22. For the same compound, the “Nuclear Count” value in the series on SH-SY5Y cells [5] turned out to be 95.56.
In turn, `CN1CCN(Cc2cccc(-c3ccc4c(Nc5ccc(Oc6ccccc6)cc5)ccnc4c3)c2)CC1` [UNC10225484A, reference compound] returned a TFEB % in the series on endogenous TFEB (PKIS2 primary screening) of 9.01%. Besides, the “TFEB translocation (in words)” value with endogenous TFEB (SH-SY5Y, 24 h treatment) was “some TFEB and TFE3 translocation; also recorded: modest TFEB and 3 translocation at 2 µM”. In the series with endogenous TFE3 (PKIS2 primary screening), the TFE3 % is recorded as 42.01%. In addition, in the series with endogenous TFE3 (SH-SY5Y, 24 h treatment), the “TFE3 translocation (in words)” value is “some TFEB and TFE3 translocation; also recorded: modest TFEB and 3 translocation at 2 µM”. In addition, the Outcome entry with SH-SY5Y cells [4] was “LYSO TOXIC”. The “DQ Intensity” value in the series with SH-SY5Y cells [1] (setting [6]) is 129.44. In the series with SH-SY5Y cells [1] (setting [7]), the “DQ Spot” value is recorded as 68.80. In the series on SH-SY5Y cells [1] (SH-SY5Y, 24 h treatment), the “DQ Red BSA spot count / active lysosome count (in words)” value is reported as “reduction in active lysosome spots; also recorded: correlated drop in DQ Red BSA spot count”. In the series with SH-SY5Y cells [3], this compound registered an AK of 84.86. Further, the “Cellular toxicity (AK release and nuclear count, in words)” value with SH-SY5Y cells [3] (SH-SY5Y, 24 h treatment) was “no indication of cellular toxicity”. Moreover, the “Nuclear Count” value in the series on SH-SY5Y cells [5] was determined as 88.62.
`COc1cc2ncnc(Nc3ccc4nc(-c5ccccc5)[nH]c4c3)c2cc1OC.Cl` [UNC10225504A] came in with a TFEB % in the series with endogenous TFEB (PKIS2 primary screening) of 2.24%. Also, in the series with endogenous TFE3 (PKIS2 primary screening), the TFE3 % is recorded as 30.79%. Besides, in the series with SH-SY5Y cells [4], the Outcome entry is on record as “TFE3”. In addition, the “DQ Intensity” value in the series on SH-SY5Y cells [1] (setting [6]) came to 98.46. In the series on SH-SY5Y cells [1] (setting [7]), the “DQ Spot” value is 113.89. The AK in the series with SH-SY5Y cells [3] was determined as 94.98. Besides, the “Nuclear Count” value in the series with SH-SY5Y cells [5] is 107.73.

The record behind these values is PMC9851200, “Multiparameter phenotypic screening for endogenous TFEB and TFE3 translocation identifies novel chemical series modulating lysosome function” (Autophagy, 2022).
